Results taken from patent US7445765B2, “Radiopharmaceutical for diagnostic imaging containing a technetium-99m nitride heterocomplex” (Nihon Medi-Physics Co., Ltd., priority 2000, dated 2008).

Key:
[1] = Biodistribution of the 99mTc(N) heterocomplexes in rats (organ uptake, heart accumulation, heart/lung and heart/liver ratios); format: in vivo, female Sprague-Dawley rats
In short: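 Female Sprague-Dawley rats (200–250 g, n=3), ketamine/xylazine anaesthesia, got 300–370 kBq of each purified heterocomplex in pH 7.4 phosphate buffer (10% ethanol) via the jugular vein. They were killed at several post-injection times. Heart blood and washed, weighed organs were gamma-counted, taking whole blood as 6.5% of body weight.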

[2] = Measurement of Log k′ by HPLC, PNP5 or PNP6 heterocomplexes; format: physicochemical; conditions: HPLC C18, methanol/phosphate buffer (pH 7.4, 0.02M), 1.0 mL/min; extrapolated to 0% organic solvent
Method: Log k′o values, measured at various compositions of the mobile phase, were determind for the ^99mTc(N) heterocomplexes obtained using PNP5 or PNP6 as a bisphosphinoamine compound. The analysis of the relationship between Log k′o values and the mobile-phase composition yielded extrapolated Log k′ values as a measure of the partitioning between the hydrophobic stationary phase and water. The Log k′ values were extrapolated from the linear part of the curve.
TLC chromatography was carried out on silica-gel plates and using the mixture ethanol/chloroform/toluene/[NH4][CH3COO] (0.5 M) (5:3:3:0.5) as mobile phase. […] HPLC analysis was performed on a Beckman System Gold instrument equipped with a Programmable Solvent Module 126, a scanning detector Module 166 and a radioisotope detector Module 170. A C18 reversed-phase precolumn (Ultrasphere Beckman, 4.6×45 mm), a C18 reversed-phase column (Ultrasphere Beckman, 4.6×250 mm) and a 100-μL loop were used. The mobile phase was methanol in various mixtures (% v/v) with a phosphate buffer (pH=7.4, 0.02M) at a flow rate of 1.0 mL min^−1. Before injection, all solutions were purified using a CM Sep-Pak cartridge. […]

With CCOCCN1CC[P](CCCOC)(CCCOC)[99Tc+]2(#[N])([S]C(N(CCOCC)CCOCC)=[S]2)[P](CCCOC)(CCCOC)CC1 [[^99mTc(N) (PNP5) (DBODC)]^+] as the molecule, how does the “Biodistribution in rats: Adrenal glands” value ([1]; 0 min post injection) read?
Its value is 2.87 % dose/g.

What about the “Biodistribution in rats: Blood” value ([1]; 0 min post injection) of the same molecule?
Its value is 6.65 % dose/g.

What about the “Biodistribution in rats: Brain” value ([1]; 0 min post injection) of the same molecule?
Its value is 0.45 % dose/g.

What about the “Biodistribution in rats: Heart” value ([1]; 0 min post injection) of the same molecule?
Its value is 5.01 % dose/g.

What about the “Biodistribution in rats: Intestine” value ([1]; 0 min post injection) of the same molecule?
Its value is 1.71 % dose/g.

And the “Biodistribution in rats: Kidneys” value ([1]; 0 min post injection)?
Its value is 3.71 % dose/g.

And the “Biodistribution in rats: Liver” value ([1]; 0 min post injection)?
The value was 0.82 % dose/g.

And the “Biodistribution in rats: Lungs” value ([1]; 0 min post injection)?
The value was 6.58 % dose/g.

And the “Biodistribution in rats: Muscle” value ([1]; 0 min post injection)?
The value was 0.09 % dose/g.

And the “Biodistribution in rats: Spleen” value ([1]; 0 min post injection)?
The value was 1.75 % dose/g.

And the “Biodistribution in rats: Submax. glands” value ([1]; 0 min post injection)?
The value was 0.16 % dose/g.

What about the “Biodistribution in rats: Adrenal glands” value ([1]; 2 min post injection) of the same molecule?
The value was 3.95 % dose/g.

And the “Biodistribution in rats: Blood” value ([1]; 2 min post injection)?
Its value is 0.11 % dose/g.

What about the “Biodistribution in rats: Brain” value ([1]; 2 min post injection) of the same molecule?
Its value is 0.03 % dose/g.

What about the “Biodistribution in rats: Heart” value ([1]; 2 min post injection) of the same molecule?
The value was 3.94 % dose/g.

What about the “Biodistribution in rats: Intestine” value ([1]; 2 min post injection) of the same molecule?
The value was 7.97 % dose/g.

What about the “Biodistribution in rats: Kidneys” value ([1]; 2 min post injection) of the same molecule?
The value was 14.69 % dose/g.

And the “Biodistribution in rats: Liver” value ([1]; 2 min post injection)?
The value was 2.66 % dose/g.

What about the “Biodistribution in rats: Lungs” value ([1]; 2 min post injection) of the same molecule?
The value was 0.99 % dose/g.

What about the “Biodistribution in rats: Muscle” value ([1]; 2 min post injection) of the same molecule?
The value was 0.20 % dose/g.

What about the “Biodistribution in rats: Spleen” value ([1]; 2 min post injection) of the same molecule?
Its value is 2.68 % dose/g.

What about the “Biodistribution in rats: Submax. glands” value ([1]; 2 min post injection) of the same molecule?
The value was 1.77 % dose/g.

What about the “Biodistribution in rats: Adrenal glands” value ([1]; 10 min post injection) of the same molecule?
Its value is 3.73 % dose/g.

What about the “Biodistribution in rats: Blood” value ([1]; 10 min post injection) of the same molecule?
The value was 0.03 % dose/g.

What about the “Biodistribution in rats: Brain” value ([1]; 10 min post injection) of the same molecule?
The value was 0.01 % dose/g.

And the “Biodistribution in rats: Heart” value ([1]; 10 min post injection)?
Its value is 3.69 % dose/g.

What about the “Biodistribution in rats: Intestine” value ([1]; 10 min post injection) of the same molecule?
Its value is 9.04 % dose/g.

What about the “Biodistribution in rats: Kidneys” value ([1]; 10 min post injection) of the same molecule?
Its value is 9.16 % dose/g.

What about the “Biodistribution in rats: Liver” value ([1]; 10 min post injection) of the same molecule?
Its value is 1.61 % dose/g.

And the “Biodistribution in rats: Lungs” value ([1]; 10 min post injection)?
Its value is 0.88 % dose/g.

And the “Biodistribution in rats: Muscle” value ([1]; 10 min post injection)?
The value was 0.21 % dose/g.

What about the “Biodistribution in rats: Spleen” value ([1]; 10 min post injection) of the same molecule?
The value was 1.79 % dose/g.

And the “Biodistribution in rats: Submax. glands” value ([1]; 10 min post injection)?
The value was 1.79 % dose/g.

And the “Biodistribution in rats: Adrenal glands” value ([1]; 20 min post injection)?
The value was 3.00 % dose/g.

And the “Biodistribution in rats: Blood” value ([1]; 20 min post injection)?
Its value is 0.02 % dose/g.

What about the “Biodistribution in rats: Brain” value ([1]; 20 min post injection) of the same molecule?
Its value is 0.01 % dose/g.

And the “Biodistribution in rats: Heart” value ([1]; 20 min post injection)?
Its value is 3.63 % dose/g.

What about the “Biodistribution in rats: Intestine” value ([1]; 20 min post injection) of the same molecule?
Its value is 9.63 % dose/g.

What about the “Biodistribution in rats: Kidneys” value ([1]; 20 min post injection) of the same molecule?
Its value is 6.58 % dose/g.

What about the “Biodistribution in rats: Liver” value ([1]; 20 min post injection) of the same molecule?
Its value is 0.96 % dose/g.

What about the “Biodistribution in rats: Lungs” value ([1]; 20 min post injection) of the same molecule?
Its value is 0.57 % dose/g.

And the “Biodistribution in rats: Muscle” value ([1]; 20 min post injection)?
Its value is 0.17 % dose/g.

And the “Biodistribution in rats: Spleen” value ([1]; 20 min post injection)?
Its value is 1.41 % dose/g.

And the “Biodistribution in rats: Submax. glands” value ([1]; 20 min post injection)?
The value was 1.57 % dose/g.

What about the “Biodistribution in rats: Adrenal glands” value ([1]; 30 min post injection) of the same molecule?
The value was 3.36 % dose/g.

What about the “Biodistribution in rats: Blood” value ([1]; 30 min post injection) of the same molecule?
Its value is 0.02 % dose/g.

And the “Biodistribution in rats: Brain” value ([1]; 30 min post injection)?
Its value is 0.01 % dose/g.

What about the “Biodistribution in rats: Heart” value ([1]; 30 min post injection) of the same molecule?
Its value is 3.73 % dose/g.

And the “Biodistribution in rats: Intestine” value ([1]; 30 min post injection)?
Its value is 6.70 % dose/g.

And the “Biodistribution in rats: Kidneys” value ([1]; 30 min post injection)?
The value was 6.70 % dose/g.

And the “Biodistribution in rats: Liver” value ([1]; 30 min post injection)?
Its value is 0.72 % dose/g.

And the “Biodistribution in rats: Lungs” value ([1]; 30 min post injection)?
Its value is 0.64 % dose/g.

What about the “Biodistribution in rats: Muscle” value ([1]; 30 min post injection) of the same molecule?
The value was 0.19 % dose/g.

What about the “Biodistribution in rats: Spleen” value ([1]; 30 min post injection) of the same molecule?
Its value is 0.92 % dose/g.

What about the “Biodistribution in rats: Submax. glands” value ([1]; 30 min post injection) of the same molecule?
Its value is 1.88 % dose/g.

What about the “Biodistribution in rats: Adrenal glands” value ([1]; 60 min post injection) of the same molecule?
The value was 4.17 % dose/g.

What about the “Biodistribution in rats: Blood” value ([1]; 60 min post injection) of the same molecule?
Its value is 0.01 % dose/g.

And the “Biodistribution in rats: Brain” value ([1]; 60 min post injection)?
The value was 0.01 % dose/g.

What about the “Biodistribution in rats: Heart” value ([1]; 60 min post injection) of the same molecule?
Its value is 3.76 % dose/g.

And the “Biodistribution in rats: Intestine” value ([1]; 60 min post injection)?
The value was 6.52 % dose/g.

And the “Biodistribution in rats: Kidneys” value ([1]; 60 min post injection)?
The value was 5.73 % dose/g.

What about the “Biodistribution in rats: Liver” value ([1]; 60 min post injection) of the same molecule?
Its value is 0.20 % dose/g.

And the “Biodistribution in rats: Lungs” value ([1]; 60 min post injection)?
Its value is 0.46 % dose/g.

And the “Biodistribution in rats: Muscle” value ([1]; 60 min post injection)?
The value was 0.21 % dose/g.

What about the “Biodistribution in rats: Spleen” value ([1]; 60 min post injection) of the same molecule?
The value was 0.41 % dose/g.

And the “Biodistribution in rats: Submax. glands” value ([1]; 60 min post injection)?
The value was 1.84 % dose/g.

And the “Biodistribution in rats: Adrenal glands” value ([1]; 120 min post injection)?
Its value is 3.44 % dose/g.

And the “Biodistribution in rats: Blood” value ([1]; 120 min post injection)?
Its value is 0.01 % dose/g.

What about the “Biodistribution in rats: Brain” value ([1]; 120 min post injection) of the same molecule?
Its value is 0.00 % dose/g.

And the “Biodistribution in rats: Heart” value ([1]; 120 min post injection)?
Its value is 3.31 % dose/g.

And the “Biodistribution in rats: Intestine” value ([1]; 120 min post injection)?
The value was 6.57 % dose/g.

What about the “Biodistribution in rats: Kidneys” value ([1]; 120 min post injection) of the same molecule?
Its value is 3.48 % dose/g.

What about the “Biodistribution in rats: Liver” value ([1]; 120 min post injection) of the same molecule?
Its value is 0.10 % dose/g.

What about the “Biodistribution in rats: Lungs” value ([1]; 120 min post injection) of the same molecule?
Its value is 0.25 % dose/g.

What about the “Biodistribution in rats: Muscle” value ([1]; 120 min post injection) of the same molecule?
Its value is 0.23 % dose/g.

What about the “Biodistribution in rats: Spleen” value ([1]; 120 min post injection) of the same molecule?
The value was 0.21 % dose/g.

What about the “Biodistribution in rats: Submax. glands” value ([1]; 120 min post injection) of the same molecule?
Its value is 2.09 % dose/g.

And the “LOG k′” value [2]?
Its value is 3.69.
